Data on 25 molecules can be found in patent US11345681B1, “Inhibitors of fibroblast growth factor receptor kinases” (Kinnate Biopharma Inc., priority 2020, dated 2022).

Where only a bound is given, the exact number is not on record here.

The experiment has as its target Wild type FGFR2 (Homo sapiens (Human), UniProt P21802). In words: FGFR2 kinase assay (fluorescence-based microfluidic mobility shift assay). Type of experiment: biochemical. To be noted: wild type FGFR2 0.06 nM, 100 μM ATP, 80 minutes at room temperature; class symbols.

Sequence of Wild type FGFR2 (P21802 22-821): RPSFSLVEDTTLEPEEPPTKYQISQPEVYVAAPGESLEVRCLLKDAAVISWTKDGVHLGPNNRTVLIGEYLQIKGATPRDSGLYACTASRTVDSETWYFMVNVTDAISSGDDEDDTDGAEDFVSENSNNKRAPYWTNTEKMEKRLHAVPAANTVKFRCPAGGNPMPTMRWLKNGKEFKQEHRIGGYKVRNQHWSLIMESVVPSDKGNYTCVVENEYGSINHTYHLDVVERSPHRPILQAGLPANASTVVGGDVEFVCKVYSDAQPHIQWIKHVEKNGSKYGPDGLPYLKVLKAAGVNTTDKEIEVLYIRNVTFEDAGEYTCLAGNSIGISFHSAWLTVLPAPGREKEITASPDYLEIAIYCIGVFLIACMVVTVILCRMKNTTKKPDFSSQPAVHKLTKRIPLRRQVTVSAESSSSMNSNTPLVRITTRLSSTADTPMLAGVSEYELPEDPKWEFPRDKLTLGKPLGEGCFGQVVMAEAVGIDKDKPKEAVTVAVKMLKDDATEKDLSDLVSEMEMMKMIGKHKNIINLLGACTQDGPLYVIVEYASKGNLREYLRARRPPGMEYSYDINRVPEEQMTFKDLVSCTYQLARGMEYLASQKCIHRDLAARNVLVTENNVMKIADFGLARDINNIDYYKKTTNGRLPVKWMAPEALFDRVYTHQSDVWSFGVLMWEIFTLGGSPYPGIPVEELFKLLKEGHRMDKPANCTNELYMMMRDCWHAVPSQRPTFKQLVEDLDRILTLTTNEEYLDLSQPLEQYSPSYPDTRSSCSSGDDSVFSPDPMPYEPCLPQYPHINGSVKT

For `C=CC(=O)N1C[C@@H](n2nc(C#Cc3c(F)c(F)c4c(ncn4C4CC4)c3F)c(C(N)=O)c2NC)C[C@@H]1COC` [Example 153, 3-[2-(1-cyclopropyl-4,6,7-trifluoro-1,3-benzodiazol-5-yl)ethynyl]-1-[(3S,5R)-5-(methoxymethyl)-1-(prop-2-enoyl)pyrrolidin-3-yl]-5-(methylamino)pyrazole-4-carboxamide], the IC50 is ≤ 100 nM.
With `C=CC(=O)N1C[C@@H](n2nc(C#Cc3cc4ncn(CC)c4c(F)c3F)c(C(N)=O)c2NC)C[C@@H]1COC(F)F` [Example 154, 1-[(3S,5R)-5-[(Difluoromethoxy)methyl]-1-(prop-2-enoyl)pyrrolidin-3-yl]-3-[2-(1-ethyl-6,7-difluoro-1,3-benzodiazol-5-yl)ethynyl]-5-(methylamino)pyrazole-4-carboxamide], the IC50 is ≤ 100 nM.
Consider `C=CC(=O)N1C[C@@H](n2nc(C#Cc3ccc4c(c3)ncn4C3CC3)c(C(N)=O)c2NC)C[C@@H]1COC(F)F` [Example 155, 3-[2-(1-Cyclopropyl-1,3-benzodiazol-5-yl)ethynyl]-1-[(3S,5R)-5-[(difluoromethoxy)methyl]-1-(prop-2-enoyl)pyrrolidin-3-yl]-5-(methylamino)pyrazole-4-carboxamide], for which the 50% inhibitory concentration (IC50) was ≤ 100 nM.
Turning to `C=CC(=O)N1C[C@@H](n2nc(C#Cc3c(F)cc4c(ncn4C4CC4)c3F)c(C(N)=O)c2NC)C[C@@H]1COC(F)F` [Example 156, 1-((3S,5R)-1-Acryloyl-5-((difluoromethoxy)methyl)pyrrolidin-3-yl)-3-((1-cyclopropyl-4,6-difluoro-1H-benzo[d]imidazol-5-yl)ethynyl)-5-(methylamino)-1H-pyrazole-4-carboxamide], the half-maximal inhibitory concentration (IC50) is ≤ 100 nM.
As for `C=CC(=O)N1C[C@@H](n2nc(C#Cc3c(F)c(F)c4c(ncn4CC)c3F)c(C(N)=O)c2NC)C[C@@H]1COC` [Example 157, 3-[2-(1-Ethyl-4,6,7-trifluoro-1,3-benzodiazol-5-yl)ethynyl]-1-[(3S,5R)-5-(methoxymethyl)-1-(prop-2-enoyl)pyrrolidin-3-yl]-5-(methylamino)pyrazole-4-carboxamide], the concentration for half-maximal inhibition (IC50) was ≤ 100 nM.
On to `C=CC(=O)N1C[C@@H](n2nc(C#Cc3cc4ncn(C5CC5)c4c(F)c3F)c(C(N)=O)c2NC)C[C@@H]1C` [Example 158, 3-[2-(1-cyclopropyl-6,7-difluoro-1,3-benzodiazol-5-yl)ethynyl]-1-[(3S,5S)-5-methyl-1-(prop-2-enoyl)pyrrolidin-3-yl]-5-(methylamino)pyrazole-4-carboxamide], for which the IC50 is ≤ 100 nM.
Regarding `C=CC(=O)N1C[C@@H](n2nc(C#Cc3cc4ncn(C5CC5)c4cc3F)c(C(N)=O)c2NC)C[C@@H]1COC(F)F` [Example 161, 1-((3S,5R)-1-acryloyl-5-((difluoromethoxy)methyl)pyrrolidin-3-yl)-3-((1-cyclopropyl-6-fluoro-1H-benzo[d]imidazol-5-yl)ethynyl)-5-(methylamino)-1H-pyrazole-4-carboxamide], the half-inhibitory concentration (IC50) was ≤ 100 nM.
The same measure for `C=CC(=O)N1C[C@@H](n2nc(C#Cc3c(F)cc4c(ncn4C4CC4)c3F)c(C(N)=O)c2NC)C[C@@H]1C(F)F` [Example 163, 3-[2-(1-Cyclopropyl-4,6-difluoro-1,3-benzodiazol-5-yl)ethynyl]-1-[(3S,5R)-5-(difluoromethyl)-1-(prop-2-enoyl)pyrrolidin-3-yl]-5-(methylamino)pyrazole-4-carboxamide]: ≤ 100 nM; for `C=CC(=O)N1C[C@@H](n2nc(C#Cc3cc4ncn(C5CC5)c4cc3F)c(C(N)=O)c2NC)C[C@H]1C` [Example 164, 1-((3S,5R)-1-Acryloyl-5-methylpyrrolidin-3-yl)-3-((1-cyclopropyl-6-fluoro-1H-benzo[d]imidazol-5-yl)ethynyl)-5-(methylamino)-1H-pyrazole-4-carboxamide]: ≤ 100 nM; for `C=CC(=O)N1C[C@@H](n2nc(C#Cc3c(F)cc4c(ncn4C4CC4)c3F)c(C(N)=O)c2NC)C[C@H]1C` [Example 165, 3-[2-(1-Cyclopropyl-4,6-difluoro-1,3-benzodiazol-5-yl)ethynyl]-1-[(3S,5R)-5-methyl-1-(prop-2-enoyl)pyrrolidin-3-yl]-5-(methylamino)pyrazole-4-carboxamide]: ≤ 100 nM.
In the case of `C=CC(=O)N1CC[C@H](n2nc(C#Cc3cc4ncn(C5CC5)c4cc3F)c(C(N)=O)c2N)C1` [Example 168, 5-Amino-3-[2-(1-cyclopropyl-6-fluoro-1,3-benzodiazol-5-yl)ethynyl]-1-[(3S)-1-(prop-2-enoyl)pyrrolidin-3-yl]pyrazole-4-carboxamide], the IC50 is ≤ 100 nM.
The same measure for `C=CC(=O)N1C[C@@H](n2nc(C#Cc3cc4ncn(C5CC5)c4cc3F)c(C(N)=O)c2NC)C[C@@H]1C` [Example 169, 1-((3S,5S)-1-Acryloyl-5-methylpynolidin-3-yl)-3-((1-cyclopropyl-6-fluoro-1H-benzo[d]imidazol-5-yl)ethynyl)-5-(methylamino)-1H-pyrazole-4-carboxamide]: ≤ 100 nM.
Regarding `C=CC(=O)N1C[C@@H](n2nc(C#Cc3cc4ncn(C5CC5)c4cc3F)c(C(N)=O)c2NC)C[C@@H]1C(F)F` [Example 170, 3-[2-(1-Cyclopropyl-6-fluoro-1,3-benzodiazol-5-yl)ethynyl]-1-[(3S,5R)-5-(difluoromethyl)-1-(prop-2-enoyl)pyrrolidin-3-yl]-5-(methylamino)pyrazole-4-carboxamide], the half-maximal inhibitory concentration (IC50) was ≤ 100 nM.
The same measure for `C=CC(=O)N1CC[C@H](n2nc(C#Cc3cc4ncn(C5CC5)c4c(F)c3F)c(C(N)=O)c2NC)C1` [Example 171]: ≤ 100 nM.
In the case of `C=C(F)C(=O)N1CC(n2nc(C#Cc3cc4ncn(C5CC5)c4cc3F)c(C(N)=O)c2NC)C1` [Example 172, 3-((1-Cyclopropyl-6-fluoro-1H-benzo[d]imidazol-5-yl)ethynyl)-1-(1-(2-fluoroacryloyl)azetidin-3-yl)-5-(methylamino)-1H-pyrazole-4-carboxamide], the half-inhibitory concentration (IC50) was ≤ 100 nM.
Consider `C=C(F)C(=O)N1CC(n2nc(C#Cc3c(F)cc4c(ncn4C4CC4)c3F)c(C(N)=O)c2NC)C1` [Example 173, 3-((1-Cyclopropyl-4,6-difluoro-1H-benzo[d]imidazol-5-yl)ethynyl)-1-(1-(2-fluoroacryloyl)azetidin-3-yl)-5-(methylamino)-1H-pyrazole-4-carboxamide], for which the IC50 was ≤ 100 nM.
The same measure for `C=CC(=O)N1CC(n2nc(C#Cc3cc4ncn(C5CC5)c4cc3F)c(C(N)=O)c2NC)C1` [Example 175, 3-[2-(1-cyclopropyl-6-fluoro-1,3-benzodiazol-5-yl)ethynyl]-5-(methylamino)-1-[1-(prop-2-enoyl)azetidin-3-yl]pyrazole-4-carboxamide]: ≤ 100 nM; for `C=CC(=O)N1C[C@@H](n2nc(C#Cc3cc4ncn(C5CC5)c4cc3F)c(C(N)=O)c2NC)C[C@@H]1CF` [Example 176, 1-((3S,5R)-1-acryloyl-5-(fluoromethyl)pyrrolidin-3-yl)-3-((1-cyclopropyl-6-fluoro-1H-benzo[d]imidazol-5-yl)ethynyl)-5-(methylamino)-1H-pyrazole-4-carboxamide]: ≤ 100 nM.
As for `C=CC(=O)N1C[C@@H](n2nc(C#Cc3c(F)cc4[nH]cnc4c3F)c(C(N)=O)c2NC)C[C@@H]1COC` [Example 177, 1-((3S,5R)-1-acryloyl-5-(methoxymethyl)pyrrolidin-3-yl)-3-((4,6-difluoro-1H-benzo[d]imidazol-5-yl)ethynyl)-5-(methylamino)-1H-pyrazole-4-carboxamide], the IC50 is ≤ 100 nM.
For the molecule `C=CC(=O)N1C[C@@H](n2nc(C#Cc3ccc4c(c3)ncn4C3CC3)c(C(N)=O)c2NC)C[C@@H]1CF` [Example 178, 1-((3S,5R)-1-Acryloyl-5-(fluoromethyl)pyrrolidin-3-yl)-3-((1-cyclopropyl-1H-benzo[d]imidazol-5-yl)ethynyl)-5-(methylamino)-1H-pyrazole-4-carboxamide], the IC50 was ≤ 100 nM.
On to `C=CC(=O)N1C[C@@H](n2nc(C#Cc3c(F)cc4c(ncn4C4CC4)c3F)c(C(N)=O)c2NC)C[C@@H]1CF` [Example 179, 1-((3S,5R)-1-Acryloyl-5-(fluoromethyl)pyrrolidin-3-yl)-3-((1-cyclopropyl-4,6-difluoro-1H-benzo[d]imidazol-5-yl)ethynyl)-5-(methylamino)-1H-pyrazole-4-carboxamide], for which the IC50 is ≤ 100 nM.
As for `C=CC(=O)N1C[C@@H](n2nc(C#Cc3cc4ncn(C5CC5)c4cc3F)c(C(N)=O)c2NC)C[C@H]1CF` [Example 180, 3-[2-(1-Cyclopropyl-6-fluoro-1,3-benzodiazol-5-yl)ethynyl]-1-[(3S,5S)-5-(fluoromethyl)-1-(prop-2-enoyl)pyrrolidin-3-yl]-5-(methylamino)pyrazole-4-carboxamide], the IC50 is ≤ 100 nM.
The same measure for `C=CC(=O)N1C[C@@H](n2nc(C#Cc3c(F)cc4c(ncn4C4CC4)c3F)c(C(N)=O)c2NC)C[C@H]1CF` [Example 181, 3-[2-(1-Cyclopropyl-4,6-difluoro-1,3-benzodiazol-5-yl)ethynyl]-1-[(3S,5S)-5-(fluoromethyl)-1-(prop-2-enoyl)pyrrolidin-3-yl]-5-(methylamino)pyrazole-4-carboxamide]: ≤ 100 nM; for `C#CC(=O)N1C[C@@H](n2nc(C#Cc3cc4ncn(C5CC5)c4cc3F)c(C(N)=O)c2NC)C[C@@H]1COC` [Example 182, 3-((1-Cyclopropyl-6-fluoro-1H-benzo[d]imidazol-5-yl)ethynyl)-1-((3S,5R)-5-(methoxymethyl)-1-propioloylpyrrolidin-3-yl)-5-(methylamino)-1H-pyrazole-4-carboxamide]: ≤ 100 nM; for `CC#CC(=O)N1C[C@@H](n2nc(C#Cc3cc4ncn(C5CC5)c4cc3F)c(C(N)=O)c2NC)C[C@@H]1COC` [Example 183, 1-((3S,5R)-1-(But-2-ynoyl)-5-(methoxymethyl)pyrrolidin-3-yl)-3-((1-cyclopropyl-6-fluoro-1H-benzo[d]imidazol-5-yl)ethynyl)-5-(methylamino)-1H-pyrazole-4-carboxamide]: ≤ 100 nM.
